“Also recorded” adds a separate entry of the source. Like-named read-outs stand apart in the source and are kept apart here.
Experiments:
HepG2 cells = assay: Drug/cytokine-induced cytotoxicity (% LDH release) concentration-response in HepG2 cells; type: cell-based, human; set-up: key to Deltadiff: LDH release percentage points (drug/TNF Delta minus drug/VEH Delta); conditions: for R10 IFN: with IFN; for R10 TNF: with TNF; for R10 TNF/IFN / EC10 TNF/IFN: with TNF and IFN; for Deltadiff: Delta of drug/TNF curve minus Delta of drug/VEH curve (LDH percentage); for Emax / D10 (LDH rise of at least 10 points, yes/no): Homo sapiens; for TNF change: D10TNF − D10VEH; for cytotoxic interaction of drug with TNF / effect of IFN coexposure on the drug/TNF cytotoxic interaction / cytotoxicity of drug on its own (LDH release) / synergy with cytokines to kill HepG2 cells: HepG2, 24 h; for cytotoxic interaction of drug with TNF: TNF 10 ng/ml; for effect of IFN coexposure on the drug/TNF cytotoxic interaction: TNF and IFN 10 ng/ml each; for cytotoxicity of drug on its own (LDH release): absence of cytokines; for EC10: value corresponding to 10% of Delta (max-min); for EC10 / EC10 IFN / EC10 TNF / EC10 TNF/IFN: NA = no significant increase; for EC10 IFN / EC10 TNF / EC10 TNF/IFN: value corresponding to 10% of Delta; for EC10 IFN: with IFN 10 ng/ml; for EC10 TNF: with TNF 10 ng/ml; for synergy with cytokines to kill HepG2 cells: TNF and/or IFN
Method: Cells were passed or used for experiments when they reached approximately 80% confluence. Cells were used at passage 6-16.
HepG2 cells were plated at a density of 4×10^4 cells per well in black-walled, 96-well, tissue culture plates and were allowed to attach overnight before being treated with compounds. Drugs were reconstituted in vehicles consisting of sterile water or DMSO (concentration less than 0.5%). Cells were treated with various concentrations of the drug or its vehicle (control) alone or in combination with the cytokines TNF (10 ng/ml) and/or IFN (10 ng/ml) or their PBS vehicle (VEH). Cytotoxicity was evaluated as lactate dehydrogenase (LDH) activity released from the cells into culture medium using the Homogeneous Membrane Integrity Assay kit from Promega (Madison, Wis.).
Concentration-response curves were generated for 24 drugs, 14 of which are associated with human IDILI and 10 of which are not. […] This was necessary because four-parameter logistic modeling used in the statistical analysis requires well defined, sigmoidal concentration-response curves. Cells were exposed to drug/cytokine combinations for 24 hours. For analysis of drug concentration-response data, concentrations of each drug were expressed as a fraction of its Cmax.
Defining covariates: four-parameter logistic model. In the first phase, variables (potential covariates) for use in the classification analysis were defined from the analysis of drug concentration-response data. Initially, a one-way analysis of variance (ANOVA) was used as an omnibus test to determine if a particular treatment (e.g. drug alone or in combination with TNF and/or IFN) caused a significant change in LDH release relative to baseline (i.e., LDH release in the absence of drug, hereafter designated “min”). The criterion for significance for the ANOVA was set at α=0.01. A 1% level of significance was used to rule out more vigorously marginal relationships between concentration and response.
where LDH(x) is the percentage of LDH released at a given concentration x; x=[drug]/Cmax; min=the % LDH release at 0 drug concentration (i.e., baseline); and max=the maximal LDH response (i.e., maximum % LDH release).
where D10 is a categorical variable related to reaching a threshold LDH response above which a drug is classified as positively associated with IDILI. D10 is defined as 0 if Delta<10% LDH release and as 1 if Delta≥10% LDH release.
The base covariate R10 represents the [drug]/Cmax value associated with an increase in 10 LDH percentage points above min for a particular treatment condition and was determined by the equation:
R10 was considered to be 0 when the Delta<10% LDH (i.e. when D10=0).
EC50 quotient, EC10 quotient and R10 quotient represent the ratio between the EC50, EC10 or R10 of the drug/cytokine concentration-response curve and the respective value for the drug/VEH concentration-response curve. In some instances, the value derived from this calculation is indeterminate (i.e. when the denominator=0). In order to incorporate the quotient values into the classification models described below, the categorical variable “Q” was used to eliminate the possibility of the quotient being indeterminate. Q is defined as 0 if Delta VEH and/or Delta cytokine is <10% LDH and 1 if both Delta VEH and Delta cytokine are ≥10% LDH. […] The same condition was applied for calculation of EC10 quotient and R10 quotient.
Deltadiff represents the difference between the Delta of the drug/cytokine concentration-response curve and the Delta of the drug/VEH curve. In other words, Deltadiff=(Delta cytokine)−(Delta VEH). FIG. 1 graphically illustrates several of the covariates defined above. […] In addition to the covariates derived from the concentration-response curves, the maximal therapeutic plasma drug concentration (Cmax) in human patients was used in some models (Table 1).

[1] = maximal plasma concentration after pharmacologic dosing in human patients; cited from earlier work
[2] = cited from earlier work; for True classification: IDILI in human patients; for IDILI liability: criteria of Xu et al. (2008)
[3] = 10 percent increase in LDH response above min, 0 when D10 = 0, drug alone (VEH)
[4] = 10 percent increase in LDH response above min, 0 when D10 = 0
[5] = HepG2, categorical, Delta threshold 10 LDH percentage points, drug alone (VEH), read-out: D10
[6] = HepG2, maximal LDH response, drug alone (VEH), 24 h, read-out: max
[7] = HepG2, categorical, Delta threshold 10 LDH percentage points, drug alone (VEH)

Compound	R10 (HepG2 cells; [3])	R10 IFN (HepG2 cells; [4])	R10 TNF (HepG2 cells; [4])	R10 TNF/IFN (HepG2 cells; [4])	Deltadiff (HepG2 cells)	Emax (HepG2 cells; [5])	Emax (HepG2 cells; [6])	TNF change (HepG2 cells; categorical)	Cmax [1]	True classification [2]	IDILI liability [2]	cytotoxic interaction of drug with TNF (HepG2 cells)	cytotoxicity of drug on its own (LDH release) (HepG2 cells)	EC10 (HepG2 cells; drug alone (VEH))	EC10 IFN (HepG2 cells)	EC10 TNF (HepG2 cells)	EC10 TNF/IFN (HepG2 cells)	also measured
O=C1CC2(CCCC2)CC(=O)N1CCCCN1CCN(c2ncccn2)CC1 [Buspirone]	0 [drug]/Cmax	0 [drug]/Cmax	0 [drug]/Cmax	0 [drug]/Cmax	0	< 10%	17.6%	0	0.005 µM	IDILI−	IDILI−	–	–	–	–	–	–	–
COc1c(N2C[C@@H]3CCCN[C@@H]3C2)c(F)cc2c(=O)c(C(=O)O)cn(C3CC3)c12 [Moxifloxacin]	0 [drug]/Cmax	0 [drug]/Cmax	0 [drug]/Cmax	0 [drug]/Cmax	0	< 10%	9.7%	0	6.2 µM	–	–	–	–	–	–	–	–	–
CC[C@H]1OC(=O)[C@H](C)C(=O)[C@H](C)[C@@H](O[C@@H]2O[C@H](C)C[C@H](N(C)C)[C@H]2O)[C@](C)(OC)C[C@@H](C)C(=O)[C@H](C)[C@H]2N(CCCCn3cnc(-c4cccnc4)c3)C(=O)O[C@]12C [Telithromycin]	76.6 [drug]/Cmax	81.3 [drug]/Cmax	50.5 [drug]/Cmax	39.3 [drug]/Cmax	−17.1	–	117%	0	2.77 µM	IDILI+	IDILI+	TNF significantly enhanced the cytotoxicity	statistically significant increase in LDH release	77.0 [drug]/Cmax	80.7 [drug]/Cmax	47.7 [drug]/Cmax	39.0 [drug]/Cmax	effect of IFN coexposure on the drug/TNF cytotoxic interaction (HepG2 cells): coexposure to IFN enhanced the cytotoxic interaction; D10 (LDH rise of at least 10 points, yes/no) (HepG2 cells; [7]): > 10%
CC(C)C(=O)Nc1ccc([N+](=O)[O-])c(C(F)(F)F)c1 [Flutamide]	0 [drug]/Cmax	0 [drug]/Cmax	0 [drug]/Cmax	0 [drug]/Cmax	0.4	< 10%	24.6%	0	0.36 µM	IDILI+	IDILI+	very small but statistically significant increases in LDH release	statistically significant increase in LDH release; also recorded: very small but statistically significant increases in LDH release	–	–	–	–	synergy with cytokines to kill HepG2 cells (HepG2 cells): did not synergize with cytokines to kill HepG2 cells
CCc1ccc(CCOc2ccc(CC3SC(=O)NC3=O)cc2)nc1 (stereo not drawn) [Pioglitazone]	80.1 [drug]/Cmax	84.6 [drug]/Cmax	84.5 [drug]/Cmax	87.3 [drug]/Cmax	0.8	–	44.1%	0	2.67 µM	IDILI−	IDILI−	–	caused cytotoxicity on its own	71.4 [drug]/Cmax	74.2 [drug]/Cmax	72.8 [drug]/Cmax	81.8 [drug]/Cmax	synergy with cytokines to kill HepG2 cells (HepG2 cells): not enhanced by the addition of cytokines; D10 (LDH rise of at least 10 points, yes/no) (HepG2 cells; [7]): > 10%
O=C(O)Cc1ccccc1Nc1c(Cl)cccc1Cl [Diclofenac]	–	0 [drug]/Cmax	28.3 [drug]/Cmax	26.7 [drug]/Cmax	21.0	–	15.6%	1	–	–	–	synergized with TNF to cause cytotoxicity	caused no cytotoxicity on their own	–	–	23.9 [drug]/Cmax	23.2 [drug]/Cmax	R10 (HepG2 cells): 0 [drug]/Cmax; effect of IFN coexposure on the drug/TNF cytotoxic interaction (HepG2 cells): coexposure to IFN enhanced the cytotoxic interaction; Emax (HepG2 cells; HepG2, read-out: D10): < 10%
CC(C)Cc1ccc(C(C)C(=O)O)cc1 (stereo not drawn) [Ibuprofen]	51.7 [drug]/Cmax	51.3 [drug]/Cmax	14.4 [drug]/Cmax	15.5 [drug]/Cmax	3.9	> 10%	101%	0	164 µM	–	–	TNF significantly enhanced the cytotoxicity	statistically significant increase in LDH release	50.9 [drug]/Cmax	50.7 [drug]/Cmax	14.1 [drug]/Cmax	14.6 [drug]/Cmax	–
CCCC(CCC)C(=O)O [Valproic Acid]	–	51.3 [drug]/Cmax	23.3 [drug]/Cmax	–	37.1	–	44.5%	0	175 µM	IDILI+	–	–	–	–	23.4 [drug]/Cmax	–	–	–
C[C@H]1COc2c(N3CCN(C)CC3)c(F)cc3c(=O)c(C(=O)O)cn1c23 [Levofloxacin]	0 [drug]/Cmax	0 [drug]/Cmax	0 [drug]/Cmax	0 [drug]/Cmax	0	< 10%	14%	0	15.7 µM	–	–	–	–	–	–	–	–	–

From patent publication US20200003760A1, “IN-VITRO METHODS FOR CLASSIFYING DRUGS ACCORDING TO THEIR POTENTIAL TO CAUSE LIVER CELL INJURY” (Board of Trustees of Michigan State University, priority 2018, published 2020)
